Assay in all cases: NCI tumour cell line growth inhibition, 48 h
Experiment [1] concerns CCRF-CEM leukemia.
In experiment [2] the test system is HT29 colon.
The test system of experiment [3] is K-562 leukemia.
For experiment [4], the system named is MDA-MB-231 breast.
The subject of experiment [5] is SK-MEL-2 melanoma.
Experiment [6] relates to SN12C renal.
The test system of experiment [7] is SNB-19 CNS.
For experiment [8], the system named is TK-10 renal.
Experiment [9] has as its system U251 CNS.
Experiment [10] concerns UACC-62 melanoma.

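Values below derive from 48-hour exposures of cells grown in 96-well plates, with endpoints linearly interpolated between the two concentrations bracketing the appropriate inhibition level. GI50 marks 50% less growth. TGI is the concentration that stops growth completely.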

In the case of `CCN1C2=NCCN2S(=O)(=O)c2ccccc21`, the TGI in experiment [1], in experiment [2], in experiment [3], in experiment [4], in experiment [5] and in [6] was more than 100 µM throughout. Besides, the TGI in experiment [7], in experiment [8], in experiment [9] and in [10] was more than 100 µM each time.
For `Nc1ccccc1NC(=O)c1ccc(CCCC(=O)Nc2ccc(C3CC3N)cc2)cc1` (stereo not given), the GI50 in [1] was 2.63 µM; in experiment [2], 0.995 µM; in experiment [3], 0.658 µM; in experiment [4], 2.77 µM; in [5], 1.55 µM; in [6] it was 3.62 µM. Besides, the GI50 is 3.81 µM in [7], 0.36 µM in [8], 1.34 µM in [9] and 0.573 µM in experiment [10]. For the same compound, the TGI in experiment [1] was more than 100 µM; in experiment [2] it was more than 100 µM; in experiment [3], more than 100 µM; in experiment [4] it was 48 µM; in experiment [5] it was 7.26 µM; in [6] it was more than 100 µM. Also, the TGI in experiment [7] was more than 100 µM; in experiment [8], 26.8 µM; in [9], 4.06 µM; in experiment [10] it was 3.03 µM.
For `COC1=CC(=O)C(OC)=C(OC)C1=O`, the GI50 in experiment [1] is 2.8 µM; in experiment [2], 22.5 µM; in [3], 2.29 µM; in [4], 2.33 µM; in [5], 9.98 µM; in experiment [6], 15.1 µM. Moreover, the GI50 in [7] is 21.5 µM; in [8], 15.3 µM; in [9] it was 15.1 µM; in experiment [10] it was 14.4 µM. For the same compound, the TGI was 8.39 µM in [1]; 53.8 µM in experiment [2]; 6.05 µM in experiment [3]; 5.13 µM in [4]; 33.1 µM in experiment [5]; 28.8 µM in [6]. The TGI in experiment [7] was determined as 52.8 µM; in experiment [8], 30 µM; in [9], 29.3 µM; in experiment [10], 27.9 µM.
As to `O=C(/C=N/O)Nc1cc(Cl)c(Cl)cc1Cl`, the TGI in experiment [1] is 91.9 µM; in experiment [2] it was more than 100 µM; in experiment [3] it was more than 100 µM; in experiment [4], 60 µM; in [5], 54.2 µM; in experiment [6], 94.3 µM. The TGI is more than 100 µM in experiment [7], more than 100 µM in [8], more than 100 µM in experiment [9] and 76.3 µM in [10].
With `Cc1ccc(C(=O)Nc2ccc(S(=O)(=O)O)c3cc(S(=O)(=O)O)cc(S(=O)(=O)O)c23)cc1NC(=S)Nc1cc(C(=O)Nc2ccc(S(=O)(=O)O)c3cc(S(=O)(=O)O)cc(S(=O)(=O)O)c23)ccc1C`, the TGI in experiment [1], in experiment [2], in experiment [3], in [4], in experiment [5] and in [6] was more than 75 µM in each case. The TGI in experiment [7], in [8], in experiment [9] and in experiment [10] was more than 75 µM in each case.
For `Cc1nccc2c3ccc(OCc4cn(-c5ccc(Cl)cc5)nn4)cc3n(CCCc3ccccc3)c12`, the GI50 is 1.75 µM in experiment [1]; 3.07 µM in [2]; 2.96 µM in [3]; 6.83 µM in experiment [4]; more than 33.3 µM in [5]; 8.81 µM in experiment [6]. The GI50 in experiment [7] was more than 33.3 µM; in experiment [8], 2 µM; in experiment [9] it was 8.82 µM; in [10] it was 1.89 µM. The TGI in [1] is more than 33.3 µM; in experiment [2], more than 33.3 µM; in experiment [3] it was more than 33.3 µM; in experiment [4], more than 33.3 µM; in experiment [5], more than 33.3 µM; in [6], 31.2 µM. For the same compound, the TGI in [7] is more than 33.3 µM; in [8], more than 33.3 µM; in [9], more than 33.3 µM; in experiment [10], 7.43 µM.
Consider `CS(=O)(=O)Nc1cccc(-c2cc(-c3ccccc3Cl)c(C#N)c(N)n2)c1`, for which the GI50 in experiment [1] is 0.562 µM; in experiment [2], 0.389 µM; in experiment [3], 0.344 µM; in experiment [4] it was 0.712 µM; in experiment [5], 0.602 µM; in [6], 0.722 µM. In addition, the GI50 in experiment [7] was 0.859 µM; in [8] it was 1.15 µM; in [9], 0.531 µM; in experiment [10], 0.51 µM. Moreover, the TGI in experiment [1] was more than 82.4 µM; in [2], 11.9 µM; in [3], more than 100 µM; in experiment [4] it was 15.5 µM; in experiment [5], 15.8 µM; in experiment [6] it was 24.4 µM. Also, the TGI came out at 19.6 µM in experiment [7], 18.5 µM in experiment [8], 15.4 µM in experiment [9] and 15.5 µM in experiment [10].
For `O=Cc1ccc(-c2ccc(-c3nc4ccccc4o3)cc2)s1`, the GI50 in [1] is 5.68 µM; in experiment [2], 53.8 µM; in experiment [3], 37 µM; in [4] it was 21.9 µM; in experiment [5], 63.4 µM; in experiment [6], 29.4 µM. Moreover, the GI50 was 49.2 µM in experiment [7], 33.6 µM in experiment [8], 29.1 µM in [9] and 30.7 µM in [10]. For the same compound, the TGI was more than 100 µM in [1]; more than 100 µM in experiment [2]; more than 100 µM in [3]; 55.2 µM in [4]; more than 100 µM in [5]; 81.3 µM in experiment [6]. Besides, the TGI was more than 100 µM in experiment [7], 81.3 µM in experiment [8], 80.8 µM in experiment [9] and 98.8 µM in experiment [10].

Values taken from PubChem BioAssay (NCI).
